Data from patent publication US8519184B2, “Synthesis of rare earth metal extractant” (Shin-Etsu Chemical Co., Ltd., priority 2010, dated 2013).
Converted amounts (≈) assume the structure as drawn.

Tests used:
[1] = cited from earlier work
[2] = Extractant state of reaction product; assay type: physicochemical; details: Table 2; reaction product at varied B/A (dioctylamine/diglycolic anhydride)
Procedure: An amount (designated A in Table 2) of diglycolic anhydride was suspended in 40 mL of hexane. Separately, an amount (designated B in Table 2) of dioctylamine was dissolved in 10 mL of hexane. With stirring, the dioctylamine solution was added dropwise to the diglycolic anhydride suspension. Stirring was continued at room temperature until it was confirmed that the solution became clear as a result of reaction of diglycolic anhydride. The reaction product was obtained in hexane solution. Table 2 also reports a ratio B/A that is a ratio of the amount (B mmol) of dioctylamine to the amount (A mmol) of diglycolic anhydride.
An aqueous solution containing mixed rare earth metals was prepared by dissolving praseodymium chloride and neodymium chloride in water in a molar ratio Pr:Nd of 1:1 and a concentration of 0.1 mol/L of Pr+Nd to form an aqueous solution, which might become an aqueous phase. A separatory funnel was charged with 100 mL of the organic solution and 100 mL of the aqueous solution and shaken at 20° C. for about 20 minutes to effect extraction. After equilibrium was reached, the liquid was allowed to separate into organic and aqueous phases. A separatory funnel was charged with 100 mL of the thus separated organic phase and 100 mL of 5N hydrochloric acid and shaken at 20° C. for about 20 minutes whereby the rare earth element once extracted into the organic phase was back-extracted into the aqueous hydrochloric acid solution. The concentrations of praseodymium and neodymium in the aqueous phase and the back-extracted aqueous hydrochloric acid solution were measured by an ICP atomic emission spectrometer ICP-7500 (Shimadzu Corp.).

[3] = Extraction/separation test (solvent extraction, Nd/Pr); details: 20° C.
Procedure: An extraction/separation test was performed. […] The reaction product solution was diluted with hexane to form an organic solution having a DODGAA concentration of 0.3 mol/L, which might become an organic phase.
An extraction/separation test was performed. The concentration of DODGAA in the reaction product solution was computed from the amounts of reactants and synthesis medium. The reaction product solution was diluted with hexane to form an organic solution having a DODGAA concentration of 0.3 mol/L, which might become an organic phase. […]
An aqueous solution containing mixed rare earth metals was prepared by dissolving praseodymium chloride and neodymium chloride in water in a molar ratio Pr:Nd of 1:1 and a concentration (mol/L) of Pr+Nd as shown in Table 4 to form an aqueous solution which might become an aqueous phase. […] The concentrations of praseodymium and neodymium in the aqueous phase and the back-extracted aqueous hydrochloric acid solution were measured by an ICP atomic emission spectrometer ICP-7500 (Shimadzu Corp.).

[4] = Table 1, DODGAA 0.3 mol/L in hexane organic phase, Pr+Nd 0.1 mol/L aqueous, about 20 minutes

In the case of `CCCCCCCCN(CCCCCCCC)C(=O)COCC(=O)O` [DODGAA, N,N-dioctyl-3-oxapentane-1,5-amic acid], the solubility in water [1] is given as 6.2 µM (≈ 2.22 µg/mL).
With `CCCCCCCCN(CCCCCCCC)C(=O)COCC(=O)O` [Example 2, N,N-dioctyl-3-oxapentane-1,5-amic acid] the Extractant state [2] was “liquid”.
With `CCCCCCCCN(CCCCCCCC)C(=O)COCC(=O)O` [Example 5, N,N-dioctyl-3-oxapentane-1,5-amic acid] the Extractant state [2] was “solid”.
For `CCCCCCCCN(CCCCCCCC)C(=O)COCC(=O)O` [Comparative Example 1, N,N-dioctyl-3-oxapentane-1,5-amic acid], the Nd/Pr separation factor [3, 4] was “satisfactory”.
With `CCCCCCCCN(CCCCCCCC)C(=O)COCC(=O)O` [Example 1, N,N-dioctyl-3-oxapentane-1,5-amic acid] the Nd/Pr separation factor [3, 4] was “satisfactory”.
With `CCCCCCCCN(CCCCCCCC)C(=O)COCC(=O)O` [Example 3, N,N-dioctyl-3-oxapentane-1,5-amic acid] the Nd/Pr separation factor ([3]; Table 2, varied B/A, DODGAA 0.3 mol/L in hexane, Pr+Nd 0.1 mol/L) was “satisfactory” and the Extractant state [2] was “liquid”.
With `CCCCCCCCN(CCCCCCCC)C(=O)COCC(=O)O` [Example 4, N,N-dioctyl-3-oxapentane-1,5-amic acid] the Extractant state [2] was “liquid”.
With `CCCCCCCCN(CCCCCCCC)C(=O)COCC(=O)O` [Comparative Example 2, N,N-dioctyl-3-oxapentane-1,5-amic acid] the Extractant state [2] was “liquid”.
